Test system: patients with postpartum depression (PPD)
Assay: Clinical trial of inhaled 5-MeO-DMT (IDR) in postpartum depression; one patient so far, 6 mg then 12 mg
Settings: 1 patient
Method: The single-arm, open-label clinical trial will involve 15 adult female patients with clinically diagnosed postpartum depression (PPD).
The second dose (12 mg) will only be administered if: • a. […] The 6 mg dose was safe and well-tolerated according to the investigator, • c. Any psychoactive effects (PsE) of the prior dose have subsided, and • d. Pre-dose vital parameters and forced expiratory volume in one second (FEV1) are in normal range, or if outside of the normal range, are not clinically significant according to the investigator. • 3. Similarly, a third dose (18 mg) will only be administered if: • a. […] The 12 mg dose was safe and well-tolerated according to the investigator, and • c. Any PsE of the prior dose have subsided, and • d. Pre-dose vital parameters and forced expiratory volume in one second (FEV1) are in normal range, or if outside of the normal range, are not clinically significant according to the investigator.
The patients will be assessed for a peak psychedelic experience (based on a patient-scored visual analogue scale, the PE scale), sedation, and other endpoints after dosing. Follow-up visits are planned for Day 1, and Day 7 after the dosing day.
The following criteria must be met by all patients considered for clinical trial participation: • 1. Is female and in the age range between 18 and 45 years (inclusive) at screening. • 2. Has a body mass index (BMI) in the range of 18.5 and 35 kg/m^2 (inclusive) at screening. • 3. Meets the trial criteria for PPD as assessed by a trial psychiatrist or registered psychologist: • a. Diagnosis of Major Depressive Disorder without psychotic features, confirmed by the Mini-International Neuropsychiatric Interview (MINI), with peri-partum onset that began no earlier than gestation and no later than the first 4 weeks postpartum. • b. Has a Montgomery-Åsberg Depression Rating Scale (MADRS) total score of equal to or greater than 28 at screening and pre-dose on Day 0. • 6. […] Patients must have a negative pregnancy test at screening and on the pre-test day (Day −1). • 5. Is willing to delay start of other antidepressant or anxiety medication until after the end of the trial at Day 7 and agrees to keep any psychotherapy unchanged during the trial.
A potential patient who meets any of the following key exclusion criteria will be excluded from participation in this trial: • 1. Has, based on history, psychiatric assessment, and evaluation of the MINI, a current or prior diagnosis of bipolar disorder, a manic or hypomanic episode, a psychotic disorder, Major Depressive Disorder (MDD) or other mood disorder with psychotic features, obsessive compulsive disorder, post-traumatic stress disorder (PTSD), autism spectrum disorder, borderline personality disorder, schizophrenia, delusional disorder, paranoid personality disorder, schizoaffective disorder, clinically significant intellectual disability, or any other psychiatric comorbidity that renders the patient unsuitable for the trial according to the investigator's judgment. • 2. Has one or more first or second degree relatives with a current or previously diagnosed bipolar disorder, psychotic disorder or other mood disorder (including MDD) with psychotic features. • 3. Is in the judgement of a trial psychiatrist or registered psychologist, at significant risk for suicide based on history, psychiatric assessment, and evaluation of suicidal ideation and suicidal behaviour based on the Columbia-Suicide Severity Rating Scale (C-SSRS). • 4. Has taken anti-depressive medication within 14 days or 5 half-lives (whichever is longer) prior to dosing (exception: within the last 5 weeks in the case of fluoxetine). • 5.

COc1ccc2[nH]cc(CCN(C)C)c2c1 [5-MeO-DMT]
ECG (3 hours), safety laboratory analyses (7 days), CADSS (3 hours, 1 day, 7 days): unremarkable
standard criteria for MADRS remission (total score equal or less than 10): fulfilled
standard criteria for MADRS response (at least 50% improvement from baseline): fulfilled
time to clinical response after administration: ≤ 2 h
tolerability of the inhalation procedure: well tolerated with no inhalation-related adverse events
MADRS Apparent sadness improvement (2hr): 5
MADRS Apparent sadness score (2hr): 0
MADRS Concentration Difficulties improvement (2hr): 0
MADRS Concentration Difficulties score (2hr): 0
MADRS Inability to Feel improvement (2hr): 3
MADRS Inability to Feel score (2hr): 0
MADRS Inner Tension improvement (2hr): 5
MADRS Inner Tension score (2hr): 0
MADRS Lassitude improvement (2hr): 3
MADRS Lassitude score (2hr): 0
MADRS Pessimistic Thoughts improvement (2hr): 4
MADRS Pessimistic Thoughts score (2hr): 0
MADRS Reduced Sleep improvement (2hr): 0
MADRS Reduced Sleep score (2hr): 5
MADRS Reduced appetite improvement (2hr): 0
MADRS Reduced appetite score (2hr): 0
MADRS Reported sadness improvement (2hr): 4
MADRS Reported sadness score (2hr): 0
MADRS Suicidal Thoughts improvement (2hr): 0
MADRS Suicidal Thoughts score (2hr): 0
BIMF TOTAL score (Day 0): 92
BIMF item 1 (I am a good mother) score (Day 0): 6
BIMF item 2 (I feel rested) score (Day 0): 0
BIMF item 3 (comfortable with the way I've chosen to feed my baby) score (Day 0): 6
BIMF item 4 (My baby and I understand each other) score (Day 0): 5
BIMF item 5 (able to relax and enjoy time with my baby) score (Day 0): 5
BIMF item 6 (people I can trust to care for my baby when I need a break) score (Day 0): 6
BIMF item 8 (getting enough adult interaction) score (Day 0): 6
BIMF item 9 (getting enough encouragement from other people) score (Day 0): 5
BIMF item 10 (trust my own feelings (instincts) in taking care of my baby) score (Day 0): 5
BIMF item 11 (take a little time each week to do something for myself) score (Day 0): 5
BIMF item 12 (taking good care of my baby's physical needs) score (Day 0): 6
BIMF item 13 (taking good care of my physical needs) score (Day 0): 4
BIMF item 14 (good decisions about my baby's health and well being) score (Day 0): 6
BIMF item 15 (My baby and I are getting into a routine) score (Day 0): 5
BIMF item 16 (I worry about how other people judge me (as a mother)) score (Day 0): 3
BIMF item 17 (able to take care of my baby and my other responsibilities) score (Day 0): 5
BIMF item 18 (Anxiety or worry often interferes with my mothering ability) score (Day 0): 2
BIMF item 19 (getting better at taking care of my baby) score (Day 0): 0
BIMF item 20 (satisfied with the job I am doing as a new mother) score (Day 0): 6
adverse events (cramping left abdominal pain, headache) (Day 0): mild, short-lasting and resolved spontaneously
BIMF functional domain Adjustment score (Day 0, maximum possible 12): 5
BIMF functional domain Infant Care score (Day 0, maximum possible 12): 12
BIMF functional domain Mother-Child Interaction score (Day 0, maximum possible 18): 15
BIMF functional domain Self Care score (Day 0, maximum possible 18): 9
BIMF functional domain Social Support score (Day 0, maximum possible 18): 17
BIMF functional domain Management score (Day 0, maximum possible 36): 28
BIMF functional domain Psychological Well-being score (Day 0, maximum possible 60): 44
BPRS Anxiety improvement (Day 1): 6
BPRS Anxiety score (Day 1): 1
BPRS Blunted affect improvement (Day 1): 0
BPRS Blunted affect score (Day 1): 1
BPRS Conceptual disorganization improvement (Day 1): 0
BPRS Conceptual disorganization score (Day 1): 1
BPRS Depressive Mood improvement (Day 1): 5
BPRS Depressive Mood score (Day 1): 1
BPRS Disorientation improvement (Day 1): 0
BPRS Disorientation score (Day 1): 1
BPRS Emotional withdrawal improvement (Day 1): 4
BPRS Emotional withdrawal score (Day 1): 1
BPRS Excitement improvement (Day 1): 1
BPRS Excitement score (Day 1): 1
BPRS Grandiosity improvement (Day 1): 0
BPRS Grandiosity score (Day 1): 1
BPRS Guilt feelings improvement (Day 1): 5
BPRS Guilt feelings score (Day 1): 1
BPRS Hallucinatory behaviour improvement (Day 1): 0
BPRS Hallucinatory behaviour score (Day 1): 1
BPRS Hostility improvement (Day 1): 0
BPRS Hostility score (Day 1): 1
BPRS Mannerisms and Posturing improvement (Day 1): 0
BPRS Mannerisms and Posturing score (Day 1): 1
BPRS Motor retardation improvement (Day 1): 0
BPRS Motor retardation score (Day 1): 1
BPRS Somatic Concern improvement (Day 1): 5
BPRS Somatic Concern score (Day 1): 1
BPRS Suspiciousness improvement (Day 1): 0
BPRS Suspiciousness score (Day 1): 1
BPRS Tension score (Day 1): 1
BPRS Uncooperativeness improvement (Day 1): 0
BPRS Uncooperativeness score (Day 1): 1
BPRS Unusual Thought Content improvement (Day 1): 0
BPRS Unusual Thought Content score (Day 1): 1
MADRS Apparent sadness improvement (Day 1): 5
MADRS Apparent sadness score (Day 1): 0
MADRS Concentration Difficulties improvement (Day 1): 0
MADRS Concentration Difficulties score (Day 1): 0
MADRS Inability to Feel improvement (Day 1): 3
MADRS Inability to Feel score (Day 1): 0
MADRS Inner Tension improvement (Day 1): 5
MADRS Inner Tension score (Day 1): 0
MADRS Lassitude improvement (Day 1): 3
MADRS Lassitude score (Day 1): 0
MADRS Pessimistic Thoughts improvement (Day 1): 4
MADRS Pessimistic Thoughts score (Day 1): 0
MADRS Reduced Sleep improvement (Day 1): 5
MADRS Reduced Sleep score (Day 1): 0
MADRS Reduced appetite improvement (Day 1): 0
MADRS Reduced appetite score (Day 1): 0
MADRS Reported sadness improvement (Day 1): 4
MADRS Reported sadness score (Day 1): 0
MADRS Suicidal Thoughts improvement (Day 1): 0
MADRS Suicidal Thoughts score (Day 1): 0
BIMF item 1 (I am a good mother) score (Day 7): 6
BIMF item 2 (I feel rested) score (Day 7): 2
BIMF item 3 (comfortable with the way I've chosen to feed my baby) score (Day 7): 6
BIMF item 4 (My baby and I understand each other) score (Day 7): 5
BIMF item 5 (able to relax and enjoy time with my baby) score (Day 7): 6
BIMF item 6 (people I can trust to care for my baby when I need a break) score (Day 7): 6
BIMF item 8 (getting enough adult interaction) score (Day 7): 6
BIMF item 9 (getting enough encouragement from other people) score (Day 7): 6
BIMF item 10 (trust my own feelings (instincts) in taking care of my baby) score (Day 7): 6
